The text below walks through data of patent US20050250677A1, “Glycopeptide antibiotic derivatives” (priority 2002, published 2005).

What all share (type): cell-based
One experiment deals with murine leukemia L1210. As to the kind of experiment: Cytostatic activity assay, L1210 cells. The note with it: read-out: IC50 L1210 (compound concentration required to inhibit tumor cell proliferation by 50%).
Experiment [1] concerns human lymphocyte Molt4/clone 8. The experiment is described as follows: Cytostatic activity assay, Molt4/clone 8 cells. The note with it: read-out: IC50 Molt4/C8 (compound concentration required to inhibit tumor cell proliferation by 50%).
A further experiment has as its system human lymphocyte CEM. As to the kind of experiment: Cytostatic activity assay, CEM cells. The note with it: read-out: IC50 CEM (compound concentration required to inhibit tumor cell proliferation by 50%).
The subject of a further experiment is HIV-1 (IIIB). The experiment is described as follows: Inhibition of HIV-1 (IIIB)-induced cytopathicity (giant cell formation) in CEM cells. The note with it: read-out: EC50 HIV-1 (concentration required to inhibit HIV-induced giant cell formation by 50%); HIV-1, CEM cell cultures. Here is the method:
(§1) A variety of glycopeptide antibiotic derivatives of vancomycin, eremomycin and teicoplanin including their aglycon derivatives were evaluated for their inhibitory activity against HIV-1 (IIIB) and HIV-2(ROD) in CEM cell cultures.
On the technique in general: Cytopathic effects are the visible damage that an infection or toxin causes in cultured cells.

A further experiment deals with HIV-2(ROD). As to the kind of experiment: Inhibition of HIV-2 (ROD)-induced cytopathicity (giant cell formation) in CEM cells. The conditions noted are these: read-out: EC50 HIV-2 (concentration required to inhibit HIV-induced giant cell formation by 50%); HIV-2, CEM cell cultures. On the procedure:
as §1

As for `CCCCc1ccc(CNCc2c(O)cc3c(c2O)-c2cc(ccc2O)C2NC(=O)C4NC(=O)C(CC(N)=O)NC(=O)C(NC(=O)C(CC(C)C)NC)C(O)c5ccc(c(Cl)c5)Oc5cc4cc(c5OC4OC(CO)C(O)C(O)C4OC4CC(C)(N)C(O)C(C)O4)Oc4ccc(cc4)C(OC4CC(C)(N)C(O)C(C)O4)C(NC2=O)C(=O)NC3C(=O)NC)cc1` (stereo not drawn) [Compound 3], the results for the IC50 (in the experiment with murine leukemia L1210; in experiment [1]; with human lymphocyte CEM) were 22 ± 0.3 µM, 24 ± 18 µM and 95 ± 14.1 µM, respectively. The EC50 with HIV-1 (IIIB) is 5.1 ± 3.3 µM; with HIV-2(ROD), 20 µM.
Regarding `CCCCCCCCCC[N+](C)(C)CCCNCc1c(O)cc2c(c1O)-c1cc(ccc1O)C1NC(=O)C3NC(=O)C(CC(N)=O)NC(=O)C(NC(=O)C(CC(C)C)NC)C(O)c4ccc(c(Cl)c4)Oc4cc3cc(c4OC3OC(CO)C(O)C(O)C3OC3CC(C)(N)C(O)C(C)O3)Oc3ccc(cc3)C(OC3CC(C)(N)C(O)C(C)O3)C(NC1=O)C(=O)NC2C(=O)NCCCN(C)C` (stereo not drawn) [Compound 4], the IC50 stood at 16 ± 6 µM with murine leukemia L1210, 33 ± 5 µM in experiment [1] and 27 ± 7 µM in the experiment on human lymphocyte CEM. For the same compound, the EC50 in the experiment with HIV-1 (IIIB) was 7 µM; in the experiment with HIV-2(ROD), above 20 µM.
For `CNC1C(=O)NC2Cc3ccc(cc3)Oc3cc4cc(c3OC3OC(C(=O)NCCC[N+](C)(C)Cc5ccc(-c6ccccc6)cc5)C(O)C(O)C3N)Oc3ccc(cc3Cl)C(O)C3NC(=O)C(NC(=O)C4NC(=O)C(NC2=O)c2cc(cc(O)c2Cl)Oc2cc1ccc2O)c1ccc(O)c(c1)-c1c(OC2OC(CO)C(O)C(O)C2O)cc(O)cc1C(C(=O)NCCC[N+](C)(C)Cc1ccc(-c2ccccc2)cc1)NC3=O` (stereo not drawn) [Compound 10], the IC50 is 44 ± 2.9 µM in the experiment on murine leukemia L1210, 27 ± 14 µM in experiment [1] and 32 ± 5 µM with human lymphocyte CEM. Further, the EC50 in the experiment on HIV-1 (IIIB) is 4 ± 1.4 µM; in the experiment on HIV-2(ROD) it was above 10 µM.
Consider `CCCCOc1ccc(CNC2C(Oc3c4cc5cc3Oc3ccc(cc3Cl)C(O)C3NC(=O)C(NC(=O)C5NC(=O)C5NC(=O)C(Cc6ccc(cc6)O4)NC(=O)C(N(C)Cc4ccc(OCCCC)cc4)c4ccc(O)c(c4)Oc4cc(O)c(Cl)c5c4)c4ccc(O)c(c4)-c4c(O)cc(O)cc4C(C(=O)NCCCN(C)C)NC3=O)OC(C(=O)NCCCN(C)C)C(O)C2O)cc1` (stereo not drawn) [Compound 11], for which the figures for the IC50 (in the experiment with murine leukemia L1210; in experiment [1]; in the experiment on human lymphocyte CEM) were 20 ± 7.5 µM, 18 ± 2.5 µM and 80 ± 6 µM, respectively. Further, the EC50 with HIV-1 (IIIB) was 5 ± 0.7 µM; with HIV-2(ROD), above 10 µM.
`CCCCc1ccc(CNC2C(Oc3c4cc5cc3Oc3ccc(cc3Cl)C(O)C3NC(=O)C(NC(=O)C5NC(=O)C5NC(=O)C(Cc6ccc(cc6)O4)NC(=O)C(NC)c4ccc(O)c(c4)Oc4cc(O)c(Cl)c5c4)c4ccc(O)c(c4)-c4c(O)cc(O)cc4C(C(=O)NCCCN(C)C)NC3=O)OC(C(=O)NCCCN(C)C)C(O)C2O)cc1` (stereo not drawn) [Compound 12]: the IC50 was 36 ± 14 µM in the experiment on murine leukemia L1210, 66 ± 20 µM in experiment [1] and above 250 µM in the experiment on human lymphocyte CEM. Also, the EC50 in the experiment with HIV-1 (IIIB) is 12 ± 3.5 µM; with HIV-2(ROD), above 50 µM.
In the same order, the values of `CCCCCCCCCC[N+](C)(C)CCCNCc1c(O)cc2c(c1O)-c1cc(ccc1O)C1NC(=O)C3NC(=O)C4NC(=O)C(Cc5ccc(cc5)Oc5cc3cc(c5OC3OC(C(=O)NCCCN(C)C)C(O)C(O)C3N)Oc3ccc(cc3Cl)C(O)C(NC1=O)C(=O)NC2C(=O)NCCCN(C)C)NC(=O)C(NC)c1ccc(O)c(c1)Oc1cc(O)c(Cl)c4c1` (stereo not drawn) [Compound 14] are 27 ± 0.3 µM, 22 ± 4.7 µM, 92 ± 5 µM, 3.5 ± 0.7 µM and at least 20 µM.
For `CCCCCCCCCCNCc1c(O)cc2c(c1O)-c1cc(ccc1O)C1NC(=O)C3NC(=O)C4NC(=O)C(Cc5ccc(c(Cl)c5)Oc5cc3cc(c5O)Oc3ccc(cc3Cl)C(O)C(NC1=O)C(=O)NC2C(=O)NCCCN1CCCCC1C)NC(=O)C(N)c1ccc(O)c(c1)Oc1cc(O)cc4c1` (stereo not drawn) [Compound 22], the results for the IC50 (with murine leukemia L1210; in experiment [1]; in the experiment with human lymphocyte CEM) were 57 ± 15 µM, 182 ± 31 µM and 211 ± 1 µM, respectively. Also, the EC50 with HIV-1 (IIIB) is 1.3 ± 0.92 µM; in the experiment with HIV-2(ROD), 7 µM.
As to `CCCCCCCCCCNC(=O)C(N)CCCCNC(=O)C1NC(=O)C2NC(=O)C(NC(=O)C3NC(=O)C4NC(=O)C(Cc5ccc(c(Cl)c5)Oc5cc3cc(c5O)Oc3ccc(cc3Cl)C2O)NC(=O)C(N)c2ccc(O)c(c2)Oc2cc(O)cc4c2)c2ccc(O)c(c2)-c2c(O)cc(O)cc21` (stereo not drawn) [Compound 23], the IC50 in the experiment with murine leukemia L1210 worked out at 5.7 ± 0.27 µM; in experiment [1], 22 ± 22 µM; with human lymphocyte CEM, 58 ± 35 µM. Also, the EC50 was determined as 2.6 ± 2 µM in the experiment on HIV-1 (IIIB) and 5.5 ± 0.7 µM with HIV-2(ROD).
In the same order, the values of `C[N+](C)(C)CCCNC(=O)C1NC(=O)C2NC(=O)C(NC(=O)C3NC(=O)C4NC(=O)C(Cc5ccc(c(Cl)c5)Oc5cc3cc(c5O)Oc3ccc(cc3Cl)C2O)NC(=O)C(N)c2ccc(O)c(c2)Oc2cc(O)cc4c2)c2ccc(O)c(c2)-c2c1cc(O)c(CN1CCN(Cc3ccc(-c4ccccc4)cc3)CC1)c2O` (stereo not drawn) [Compound 29] are 26 ± 8.1 µM, 35 ± 8.2 µM, above 250 µM, 4.5 ± 0.7 µM and 22 ± 3.5 µM.
In the same order, the values of `CCCCCCCCCC[N+](C)(C)CCCNCc1c(O)cc2c(c1O)-c1cc(ccc1O)C1NC(=O)C3NC(=O)C4NC(=O)C(Cc5ccc(c(Cl)c5)Oc5cc3cc(c5O)Oc3ccc(cc3Cl)C(O)C(NC1=O)C(=O)NC2C(=O)NCCCN(C)C)NC(=O)C(N)c1ccc(O)c(c1)Oc1cc(O)cc4c1` (stereo not drawn) [Compound 34] are 23 ± 11 µM, 68 ± 1 µM, 50 ± 8 µM, 2.7 ± 1.84 µM and 4.5 ± 0.7 µM.
In the same order, the values of `CCCCCCCCCC[N+]1(C)CCN(Cc2c(O)cc3c(c2O)-c2cc(ccc2O)C2NC(=O)C4NC(=O)C5NC(=O)C(Cc6ccc(c(Cl)c6)Oc6cc4cc(c6O)Oc4ccc(cc4Cl)C(O)C(NC2=O)C(=O)NC3C(=O)NCCCN(C)C)NC(=O)C(N)c2ccc(O)c(c2)Oc2cc(O)cc5c2)CC1` (stereo not drawn) [Compound 38] are 51 ± 9 µM, 91 ± 13 µM, above 100 µM, 2.1 ± 0.92 µM and 10 µM.
Turning to `CCCCCCCCCC[N+](C)(C)CCCNCc1c(O)cc2c(c1O)-c1cc(ccc1O)C1NC(=O)C3NC(=O)C4NC(=O)C(Cc5ccc(c(Cl)c5)Oc5cc3cc(c5O)Oc3ccc(cc3Cl)C(O)C(NC1=O)C(=O)NC2C(=O)NCCCCCCN)NC(=O)C(N)c1ccc(O)c(c1)Oc1cc(O)cc4c1` (stereo not drawn) [Compound 42], the IC50 amounted to 38 ± 1 µM with murine leukemia L1210, 72 ± 6 µM in experiment [1] and 66 ± 2 µM with human lymphocyte CEM. Also, the EC50 in the experiment with HIV-1 (IIIB) was 1.8 ± 0.49 µM; in the experiment on HIV-2(ROD), 7 µM.
In the same order, the values of `NCCCCCCCCCCNC(=O)C1NC(=O)C2NC(=O)C(NC(=O)C3NC(=O)C4NC(=O)C(Cc5ccc(c(Cl)c5)Oc5cc3cc(c5O)Oc3ccc(cc3Cl)C2O)NC(=O)C(N)c2ccc(O)c(c2)Oc2cc(O)cc4c2)c2ccc(O)c(c2)-c2c(O)cc(O)cc21` (stereo not drawn) [Compound 43] are at least 500 µM, 225 ± 8 µM, 402 ± 138 µM, 6.5 ± 0.7 µM and 12.5 ± 3.5 µM.
Consider `C[C@@H](NC(=O)[C@@H](C)NC(=O)CCCCCNC(=O)C1NC(=O)C2NC(=O)C(NC(=O)C3NC(=O)C4NC(=O)C(Cc5ccc(c(Cl)c5)Oc5cc3cc(c5O)Oc3ccc(cc3Cl)C2O)NC(=O)C(NC(=O)OC(C)(C)C)c2ccc(O)c(c2)Oc2cc(O)cc4c2)c2ccc(O)c(c2)-c2c(O)cc(O)cc21)C(=O)O` (stereo partly drawn) [Compound 44], for which the IC50 (in the experiment with murine leukemia L1210; in experiment [1]; in the experiment on human lymphocyte CEM) was above 500 µM throughout. The EC50 in the experiment with HIV-1 (IIIB) came to 12.5 ± 3.5 µM; with HIV-2(ROD), 25 ± 7 µM.
Regarding `CNCc1c(O)cc2c(c1O)-c1cc(ccc1O)C1NC(=O)C3NC(=O)C4NC(=O)C(Cc5ccc(c(Cl)c5)Oc5cc3cc(c5O)Oc3ccc(cc3Cl)C(O)C(NC1=O)C(=O)NC2C(=O)NC)NC(=O)C(N)c1ccc(O)c(c1)Oc1cc(O)cc4c1` (stereo not drawn) [Compound 45], the IC50 (with murine leukemia L1210; in experiment [1]; in the experiment with human lymphocyte CEM) was above 500 µM throughout. Also, the values for the EC50 in the experiment on HIV-1 (IIIB) and in the experiment with HIV-2(ROD) were 15 ± 7.1 µM and 17.5 ± 10.6 µM, respectively.
As for `CCCCc1ccc(CNCc2c(O)cc3c(c2O)-c2cc(ccc2O)C2NC(=O)C4NC(=O)C5NC(=O)C(Cc6ccc(c(Cl)c6)Oc6cc4cc(c6O)Oc4ccc(cc4Cl)C(O)C(NC2=O)C(=O)NC3C(=O)NC)NC(=O)C(N)c2ccc(O)c(c2)Oc2cc(O)cc5c2)cc1` (stereo not drawn) [Compound 48], the IC50 (with murine leukemia L1210; in experiment [1]; in the experiment with human lymphocyte CEM) was above 100 µM in each case. Besides, the EC50 in the experiment on HIV-1 (IIIB) was found to be 9.7 ± 9 µM; with HIV-2(ROD), 12.3 ± 6.8 µM.
For the compound `O=C(NC1C(=O)NC2Cc3ccc(c(Cl)c3)Oc3cc4cc(c3O)Oc3ccc(cc3Cl)C(O)C3NC(=O)C(NC(=O)C4NC(=O)C(NC2=O)c2cc(O)cc(c2)Oc2cc1ccc2O)c1ccc(O)c(c1)-c1c(O)cc(O)cc1C(C(=O)O)NC3=O)OC12CC3CC(CC(C3)C1)C2` (stereo not drawn) [Compound 49], the results for the IC50 (with murine leukemia L1210; in experiment [1]; with human lymphocyte CEM) were 22 ± 0.1 µM, 25 ± 0.99 µM and 104 ± 3 µM, respectively. Also, the EC50 with HIV-1 (IIIB) worked out at 13 ± 9.9 µM; in the experiment on HIV-2(ROD) it was 6 ± 1.4 µM.
Consider `CNC(CC(C)C)C(=O)NC1C(=O)NC(CC(N)=O)C(=O)NC2C(=O)NC3C(=O)NC(C(=O)NC(C(=O)O)c4cc(O)cc(O)c4-c4cc3ccc4O)C(O)c3ccc(cc3)Oc3cc2cc(c3O)Oc2ccc(cc2Cl)C1O` (stereo not drawn) [Eremomycin aglycon], for which the IC50 (in the experiment with murine leukemia L1210; in experiment [1]; in the experiment with human lymphocyte CEM) was above 500 µM each time. For the same compound, the values for the EC50 with HIV-1 (IIIB) and in the experiment on HIV-2(ROD) were 50 ± 28 µM and 250 µM, respectively.
